# Tested on: not listed separately
# Test: Stability remark in Table V
# Type: physicochemical
# Details: in place of the optical rotation
row,SMILES,stability (in words)
1,"O=C1[C@@H](O)CCN1CC#CCN1CCC1 [Example 31, (S)-3-Hydroxy-1-[4-(1-azetidinyl)-2-butynyl]-2-pyrrolidinone]",not stable
2,"O=C1[C@H](O)CCN1CC#CCN1CCC1 [Example 33, (R)-3-Hydroxy-1-[4-(1-azetidinyl)-2-butynyl]-2-pyrrolidinone]",not stable

# Tested on: peripheral acetylcholine-like effects
# Test: Side effect profile: in vivo overt effects (salivation, tremor, diarrhea) after oral administration
# Parameters: species or system rat
# Details: (rat) po
# Description: The use of the radioligand binding assays (^3 H-QNB and ^3 H-CD) to characterize the hydroxylated oxotremorine derivatives provides a useful first approximation for,the evaluation of the muscarinic agonist-like profile of a test compound. However, in using a prodrug methodology, intrinsic activity will not be observed until in vivo hydrolysis or metabolism to the active compound occurs. Therefore, radioligand binding data, performed on the carbonyl derivatives, will not provide leading information. As a result, the observed overt effects after oral administration to rats of the test carbonyl derivative, relative to its corresponding hydroxylated oxotremorine compound, became the primary in vivo pharmacological measure. These in vivo overt effects are attributed to the peripheral acetylcholine-like effects of the compound, such as salivation, tremor and diarrhea. The in vivo overt effects also providing dosing information for the behavioral tests of cognitive improvement.
row,SMILES,Side Effect Profile minimum effective dose (MED) [μ mol/kg]
1,CCCCCCCC(=O)O[C@@H]1CCN(CC#CCN2CCCC2)C1=O [(R)-Octanoic acid 2-oxo-1-[4-(1-pyrrolidinyl)-2-butynyl]-3-pyrrolidinyl ester],14
2,CCOC(=O)O[C@H]1CCN(CC#CCN(C)C)C1=O [(S)-1-[4-(Dimethylamino)-2-butynyl]-2-oxo-3-pyrrolidinyl carbonic acid ethyl ester],2.2
3,CCCCOC(=O)O[C@H]1CCN(CC#CCN2CCCC2)C1=O [(S)-2-Oxo-1-[4-(1-pyrrolidinyl)-2-butynyl]-3-pyrrolidinyl carbonic acid butyl ester],0.9
4,CCOC(=O)O[C@H]1CCN(CC#CCN2CCCC2)C1=O [(S)-2-Oxo-1-[4-(1-pyrrolidinyl)-2-butynyl]-3-pyrrolidinyl carbonic acid ethyl ester],1.7
5,CCCCCCCCOC(=O)O[C@H]1CCN(CC#CCN2CCCC2)C1=O [(S)-2-Oxo-1-[4-(1-pyrrolidinyl)-2-butynyl]-3-pyrrolidinyl carbonic acid octyl ester],28
6,CCCC(=O)O[C@H]1CCN(CC#CCN(C)C)C1=O [(S)-Butanoic acid 1-[4-(dimethylamino)-2-butynyl]-2-oxo-3-pyrrolidinyl ester],8.0
7,CCCC(=O)O[C@H]1CCN(CC#CCN2CCCC2)C1=O [(S)-Butanoic acid 2-oxo-1-[4-(1-pyrrolidinyl)-2-butynyl]-3-pyrrolidinyl ester],1.7
8,CCCCNC(=O)O[C@H]1CCN(CC#CCN2CCCC2)C1=O [(S)-Butylcarbamic acid 1-2-oxo-[4-(1-pyrrolidinyl)-2-butynyl]-3-pyrrolidinyl ester],225
9,CCCCNC(=O)O[C@H]1CCN(CC#CCN(C)C)C1=O [(S)-Butylcarbamic acid 1-[4-(dimethylamino)-2-butynyl]-2-oxo-3-pyrrolidinyl ester],> 493
10,CCCCCCCCCC(=O)O[C@H]1CCN(CC#CCN2CCCC2)C1=O [(S)-Decanoic acid 2-oxo-1-[4-(1-pyrrolidinyl)-2-butynyl]-3-pyrrolidinyl ester],14
11,CCNC(=O)O[C@H]1CCN(CC#CCN(C)C)C1=O [(S)-Ethylcarbamic acid 1-[4-(dimethylamino)-2-butynyl]-2-oxo-3-pyrrolidinyl ester],> 510
12,CCNC(=O)O[C@H]1CCN(CC#CCN2CCCC2)C1=O [(S)-Ethylcarbamic acid 2-oxo-1-[4-(1-pyrrolidinyl)-2-butynyl]-3-pyrrolidinyl ester],> 490
13,CCCCCC(=O)O[C@H]1CCN(CC#CCN(C)C)C1=O [(S)-Hexanoic acid 1-[4-(dimethylamino)-2-butynyl]-2-oxo-3-pyrrolidinyl ester],5.9
14,CCCCCC(=O)O[C@H]1CCN(CC#CCN2CCCC2)C1=O [(S)-Hexanoic acid 2-oxo-1-[4-(1-pyrrolidinyl)-2-butynyl]-3-pyrrolidinyl ester],1.8
15,CCCCCCNC(=O)O[C@H]1CCN(CC#CCN(C)C)C1=O [(S)-Hexylcarbamic acid 1-[4-(dimethylamino)-2-butynyl]-2-oxo-3-pyrrolidinyl ester],> 510
16,CCCCCCNC(=O)O[C@H]1CCN(CC#CCN2CCCC2)C1=O [(S)-Hexylcarbamic acid 2-oxo-1-[4-(1-pyrrolidinyl)-2-butynyl]-3-pyrrolidinyl ester],> 450
17,CCCCCCCC(=O)O[C@H]1CCN(CC#CCN(C)C)C1=O [(S)-Octanoic acid 1-[4-(dimethylamino)-2-butynyl]-2-oxo-3-pyrrolidinyl ester],8.0
18,CCCCCCCCNC(=O)O[C@H]1CCN(CC#CCN(C)C)C1=O [(S)-Octylcarbamic acid 1-[4-(dimethylamino)-2-butynyl]-2-oxo-3-pyrrolidinyl ester],> 520
19,CCCCCCCCNC(=O)O[C@H]1CCN(CC#CCN2CCCC2)C1=O [(S)-Octylcarbamic acid 2-oxo-1-[4-(1-pyrrolidinyl)-2-butynyl]-3-pyrrolidinyl ester],> 450

# Tested on: SDAT patients
# Test: not given
# Details: cited from earlier work
row,SMILES,improvement in SDAT patients compared to physostigmine
1,COC(=O)C1=CCCN(C)C1 [arecoline],more consistent improvement when compared to the anticholinergic inhibitor physostigmine
